US8815950B2, “Pharmaceutical compositions and method of using levodopa and carbidopa” (Janssen Biotech, Inc., priority 2003, dated 2014)
≈ marks a conversion by molar mass, not a printed value. Read-outs that look alike come from different tables or passages of the source. One block for each compound: values may come before it.

Assays:
Format in all cases: physicochemical
[1] = Solubility of levodopa in citrate buffer at varying pH and buffer strength
Procedure: Solutions were made using Citric acid and tribasic Sodium Citrate dihydrate Initially a 1.0 M citric acid solution was made by weighing out 19.2 g Citric acid (FW 192.1) into a 100 mL volumetric flask and diluting with HPLC grade water. This was repeated with the Sodium Citrate (FW 294.1), by weighting out 29.4 g of sodium citrate in into a 100 mL volumetric flask and diluting to 100 mL with water. A series of 8 of 20 mL scintillation vials were then labeled and prepared as follows:
These pH adjustments were made with the sodium citrate (also 1.0 M) to keep a consistent molarity with the citrate. From these mother vials, 2 subsequent sets of solution were made for the molar concentrations 0.45 and 0.15 M. 0.45 M is for a 3:1 buffer and 0.15 M is for a 1:1 buffer. These solutions were also pH adjusted with molar equivalent solution to keep the pH value consistent throughout each dilution and after adding the levodopa.

[2] = Stability of levodopa and carbidopa solutions, HPLC potency test
Procedure: A formulation of: […] This powder mixture was dissolved in water at a concentration of 5.5 mg/ml of levodopa. This solution was filter through a 0.22 micrometer filter (with PVDF membrane) and then stored at temperatures of 4 degrees C., 25 degrees C. and 40 degrees C. […] This powder mixture was dissolved in water at concentration of 1.0 mg/ml of levodopa. This solution was filtered through a 0.22 micrometer filter (with PVDF membrane) and then stored at temperatures of 4 degrees C., 25 degrees C. and 40 degrees C. The sample solutions were submitted for HPLC potency test at each time point. The stability was monitored in percentage change compared to the initial potency.

[3] = Levodopa solubility in 3.5 mg/ml ascorbic acid solution; settings: aqueous buffer, thermodynamic from solid, stirring 24 hour at RT, read-out: concentration of levodopa in the filtration (maximum solubility)
Procedure: Levedopa solubility in ascorbic acid solution an ascorbic acid concentration of 3.5 mg/ml was tested. A sample of 3.5 mg/ml ascorbic acid was made by adding 70.0 mg of ascorbic acid into 20 ml of water. Then, 80.0 mg of levodopa powder was dissolved into the 3.5 mg/ml ascorbic sample by stirring for 24 hour at RT. The projected levodopa concentration was 4 mg/ml. The sample was filtered through a 0.22μ PVDF filter to remove the insoluble levodopa. The filtration was assayed by HPLC at 10× dilution with water. The HPLC data indicated the concentration of levodopa in the filtration was 2.0 mg/ml.

[4] = Levodopa/Ascorbic/Carbidopa/at 1/3/0.2 at 4 C., 1 Day
[5] = Levodopa/Ascorbic/Carbidopa/at 1/3/0.2 at 4 C., 2 Day
[6] = Levodopa/Ascorbic/Carbidopa/at 1/3/0.2 at 4 C., 7 Day
[7] = Levodopa/Ascorbic/Carbidopa/at 1/3/0.2 at 4 C., Initial
[8] = Levodopa/Ascorbic/Carbidopa/at 1/3/0.2 at 25 C., 1 Day
[9] = Levodopa/Ascorbic/Carbidopa/at 1/3/0.2 at 25 C., 2 Day
[10] = Levodopa/Ascorbic/Carbidopa/at 1/3/0.2 at 25 C., 7 Day
[11] = Levodopa/Ascorbic/Carbidopa/at 1/3/0.2 at 25 C., Initial
[12] = Levodopa/Ascorbic/Carbidopa/at 1/3/0.2 at 40 C., 1 Day
[13] = Levodopa/Ascorbic/Carbidopa/at 1/3/0.2 at 40 C., 2 Day
[14] = Levodopa/Ascorbic/Carbidopa/at 1/3/0.2 at 40 C., 7 Day
[15] = Levodopa/Ascorbic/Carbidopa/at 1/3/0.2 at 40 C., Initial
[16] = Levodopa/Citric/Carbidopa/Sucrose at 1/3/0.2/1 at 4 C., 1 Day
[17] = Levodopa/Citric/Carbidopa/Sucrose at 1/3/0.2/1 at 4 C., 2 Day
[18] = Levodopa/Citric/Carbidopa/Sucrose at 1/3/0.2/1 at 4 C., 3 Day
[19] = Levodopa/Citric/Carbidopa/Sucrose at 1/3/0.2/1 at 4 C., 7 Day
[20] = Levodopa/Citric/Carbidopa/Sucrose at 1/3/0.2/1 at 4 C., Initial
[21] = Levodopa/Citric/Carbidopa/Sucrose at 1/3/0.2/1 at 25 C., 1 Day
[22] = Levodopa/Citric/Carbidopa/Sucrose at 1/3/0.2/1 at 25 C., 2 Day
[23] = Levodopa/Citric/Carbidopa/Sucrose at 1/3/0.2/1 at 25 C., 3 Day
[24] = Levodopa/Citric/Carbidopa/Sucrose at 1/3/0.2/1 at 25 C., 7 Day
[25] = Levodopa/Citric/Carbidopa/Sucrose at 1/3/0.2/1 at 25 C., Initial
[26] = Levodopa/Citric/Carbidopa/Sucrose at 1/3/0.2/1 at 40 C., 1 Day
[27] = Levodopa/Citric/Carbidopa/Sucrose at 1/3/0.2/1 at 40 C., 2 Day
[28] = Levodopa/Citric/Carbidopa/Sucrose at 1/3/0.2/1 at 40 C., 3 Day
[29] = Levodopa/Citric/Carbidopa/Sucrose at 1/3/0.2/1 at 40 C., 7 Day
[30] = Levodopa/Citric/Carbidopa/Sucrose at 1/3/0.2/1 at 40 C., Initial

solubility ([1]; pH 1.5, aqueous buffer, Citrate buffer 0.15M pH1.5, read-out: Conc (levodopa solubility)): 7200 µg/mL (≈ 36.5 mM) | solubility ([1]; pH 1.5, aqueous buffer, Citrate buffer 0.45M pH1.5, read-out: Conc (levodopa solubility)): 11400 µg/mL (≈ 57.8 mM) | solubility ([1]; pH 1.5, aqueous buffer, Citrate buffer 1.0M pH 1.5, read-out: Conc (levodopa solubility)): 17900 µg/mL (≈ 90.9 mM) | solubility ([1]; pH 2.5, aqueous buffer, Citrate buffer 0.15M pH2.5, read-out: Conc (levodopa solubility)): 4870 µg/mL (≈ 24.7 mM) | solubility ([1]; pH 2.5, aqueous buffer, Citrate buffer 0.45M pH2.5, read-out: Conc (levodopa solubility)): 5820 µg/mL (≈ 29.5 mM) | solubility ([1]; pH 2.5, aqueous buffer, Citrate buffer 1.0M pH 2.5, read-out: Conc (levodopa solubility)): 7430 µg/mL (≈ 37.7 mM) | solubility ([1]; pH 3, aqueous buffer, Citrate buffer 0.15M pH3.0, read-out: Conc (levodopa solubility)): 4210 µg/mL (≈ 21.3 mM) | solubility ([1]; pH 3, aqueous buffer, Citrate buffer 0.45M pH3.0, read-out: Conc (levodopa solubility)): 4850 µg/mL (≈ 24.6 mM) | solubility ([1]; pH 3, aqueous buffer, Citrate buffer 1.0M pH 3.0, read-out: Conc (levodopa solubility)): 5930 µg/mL (≈ 30.1 mM) | solubility ([1]; pH 3.5, aqueous buffer, Citrate buffer 0.15M pH3.5, read-out: Conc (levodopa solubility)): 3900 µg/mL (≈ 19.8 mM) | solubility ([1]; pH 3.5, aqueous buffer, Citrate buffer 0.45M pH3.5, read-out: Conc (levodopa solubility)): 4510 µg/mL (≈ 22.9 mM) | solubility ([1]; pH 3.5, aqueous buffer, Citrate buffer 1.0M pH 3.5, read-out: Conc (levodopa solubility)): 5230 µg/mL (≈ 26.5 mM) | solubility ([1]; pH 4, aqueous buffer, Citrate buffer 0.15M pH4.0, read-out: Conc (levodopa solubility)): 3790 µg/mL (≈ 19.2 mM) | solubility ([1]; pH 4, aqueous buffer, Citrate buffer 0.45M pH4.0, read-out: Conc (levodopa solubility)): 4250 µg/mL (≈ 21.6 mM) | solubility ([1]; pH 4, aqueous buffer, Citrate buffer 1.0M pH 4.0, read-out: Conc (levodopa solubility)): 4650 µg/mL (≈ 23.6 mM) | solubility ([1]; pH 4.5, aqueous buffer, Citrate buffer 0.15M pH4.5, read-out: Conc (levodopa solubility)): 3880 µg/mL (≈ 19.7 mM) | solubility ([1]; pH 4.5, aqueous buffer, Citrate buffer 0.45M pH4.5, read-out: Conc (levodopa solubility)): 4250 µg/mL (≈ 21.6 mM) | solubility ([1]; pH 4.5, aqueous buffer, Citrate buffer 1.0M pH 4.5, read-out: Conc (levodopa solubility)): 4440 µg/mL (≈ 22.5 mM) | solubility ([1]; pH 5, aqueous buffer, Citrate buffer 0.15M pH5.0, read-out: Conc (levodopa solubility)): 3880 µg/mL (≈ 19.7 mM) | solubility ([1]; pH 5, aqueous buffer, Citrate buffer 0.45M pH5.0, read-out: Conc (levodopa solubility)): 4150 µg/mL (≈ 21 mM) | solubility ([1]; pH 5, aqueous buffer, Citrate buffer 1.0M pH 5.0, read-out: Conc (levodopa solubility)): 4170 µg/mL (≈ 21.1 mM) | solubility ([1]; pH 6, aqueous buffer, Citrate buffer 0.15M pH6.0, read-out: Conc (levodopa solubility)): 3950 µg/mL (≈ 20 mM) | solubility ([1]; pH 6, aqueous buffer, Citrate buffer 0.45M pH6.0, read-out: Conc (levodopa solubility)): 4160 µg/mL (≈ 21.1 mM) | solubility ([1]; pH 6, aqueous buffer, Citrate buffer 1.0M pH 6.0, read-out: Conc (levodopa solubility)): 3870 µg/mL (≈ 19.6 mM) | HPLC potency, percentage compared to the initial potency [2, 4]: 100% | HPLC potency, percentage compared to the initial potency [2, 5]: 100% | HPLC potency, percentage compared to the initial potency [2, 6]: 102% | HPLC potency, percentage compared to the initial potency [2, 7]: 100% | HPLC potency, percentage compared to the initial potency [2, 8]: 100% | HPLC potency, percentage compared to the initial potency [2, 9]: 100% | HPLC potency, percentage compared to the initial potency [2, 10]: 102% | HPLC potency, percentage compared to the initial potency [2, 11]: 100% | HPLC potency, percentage compared to the initial potency [2, 12]: 100% | HPLC potency, percentage compared to the initial potency [2, 13]: 101% | HPLC potency, percentage compared to the initial potency [2, 14]: 104% | HPLC potency, percentage compared to the initial potency [2, 15]: 100% | HPLC potency, percentage compared to the initial potency [2, 16]: 100% | HPLC potency, percentage compared to the initial potency [2, 17]: 100% | HPLC potency, percentage compared to the initial potency [2, 18]: 100% | HPLC potency, percentage compared to the initial potency [2, 19]: 100% | HPLC potency, percentage compared to the initial potency [2, 20]: 100% | HPLC potency, percentage compared to the initial potency [2, 21]: 100% | HPLC potency, percentage compared to the initial potency [2, 22]: 100% | HPLC potency, percentage compared to the initial potency [2, 23]: 100% | HPLC potency, percentage compared to the initial potency [2, 24]: 100% | HPLC potency, percentage compared to the initial potency [2, 25]: 100% | HPLC potency, percentage compared to the initial potency [2, 26]: 100% | HPLC potency, percentage compared to the initial potency [2, 27]: 100% | HPLC potency, percentage compared to the initial potency [2, 28]: 100% | HPLC potency, percentage compared to the initial potency [2, 29]: 100% | HPLC potency, percentage compared to the initial potency [2, 30]: 100% | solubility at 24 h [3]: 2000 µg/mL (≈ 10.1 mM)
SMILES: N[C@@H](Cc1ccc(O)c(O)c1)C(=O)O [Levodopa]

HPLC potency, percentage compared to the initial potency [2, 4]: 101% | HPLC potency, percentage compared to the initial potency [2, 5]: 101% | HPLC potency, percentage compared to the initial potency [2, 6]: 101% | HPLC potency, percentage compared to the initial potency [2, 7]: 100% | HPLC potency, percentage compared to the initial potency [2, 8]: 99% | HPLC potency, percentage compared to the initial potency [2, 9]: 97% | HPLC potency, percentage compared to the initial potency [2, 10]: 87% | HPLC potency, percentage compared to the initial potency [2, 11]: 100% | HPLC potency, percentage compared to the initial potency [2, 12]: 94% | HPLC potency, percentage compared to the initial potency [2, 13]: 88% | HPLC potency, percentage compared to the initial potency [2, 14]: 88% | HPLC potency, percentage compared to the initial potency [2, 15]: 100% | HPLC potency, percentage compared to the initial potency [2, 16]: 100% | HPLC potency, percentage compared to the initial potency [2, 17]: 100% | HPLC potency, percentage compared to the initial potency [2, 18]: 101% | HPLC potency, percentage compared to the initial potency [2, 19]: 100% | HPLC potency, percentage compared to the initial potency [2, 20]: 100% | HPLC potency, percentage compared to the initial potency [2, 21]: 98% | HPLC potency, percentage compared to the initial potency [2, 22]: 96% | HPLC potency, percentage compared to the initial potency [2, 23]: 96% | HPLC potency, percentage compared to the initial potency [2, 24]: 91% | HPLC potency, percentage compared to the initial potency [2, 25]: 100% | HPLC potency, percentage compared to the initial potency [2, 26]: 91% | HPLC potency, percentage compared to the initial potency [2, 27]: 84% | HPLC potency, percentage compared to the initial potency [2, 28]: 81% | HPLC potency, percentage compared to the initial potency [2, 29]: 75% | HPLC potency, percentage compared to the initial potency [2, 30]: 100%
SMILES: C[C@@](Cc1ccc(O)c(O)c1)(NN)C(=O)O [Carbidopa]
